Assay results reported in patent US20220387460A1, “LIPOSOME COMPOSITIONS AND METHODS OF TREATMENT TARGETED TO TUMOR ENDOTHELIUM” (Washington University, priority 2019, published 2022).
Like-named read-outs stand apart in the source and are kept apart here.

Tests used:
MM.1S cells [1] = test: Trans-endothelial migration of MM cells in Boyden chamber with SDF-1; format: cell-based; settings: 25 μM pre-treatment 3 hours, 30 nM SDF-1 (FIG. 4C)
Protocol: Trans-endothelial migration was by incubating HUVECs (5×10^3 cells) overnight in the upper chamber of a Boyden chamber (Corning), followed by an adhesion assay. MM.1S cells were pre-treated with (or without) free Y27632 (25 μM) or liposomal Y27632 (25 μM equivalent) for 3 hours. The pre-treated MM.1 S cells were then placed in the upper migration chamber in the presence or absence of 30 nM SDF-1 in the lower chamber. After 3 hours of incubation, MM.1 S cells that migrated to the lower chambers were counted by flow cytometry. The in vitro data were expressed as means±standard deviation.

MM.1S-GFP-Luc cells = test: MM tumor progression (BLI) and survival in MM.1S-GFP-Luc-bearing mice; format: in vivo; settings: weekly intravenous, BTZ 1 mg/kg; for tumor progression / tumor growth (BLI): Y27632 2.5 mg/kg (FIGS. 6A-C, 8A-D); for survival of the mice: Y27632 2.5 mg/kg (FIGS. 6D-F, 9A-D)
Protocol: Mice were randomized into 12 groups of 7 mice each, which received weekly intravenous injections of: (i) saline, (ii) Y27632 as a free drug (2.5 mg/kg), (iii) BTZ as a free drug (1 mg/kg), (iv) combination of free BTZ and free Y27632, (v) empty non-targeted liposomes, (vi) non-targeted liposomal Y27632 (2.5 mg/kg-equivalent), (vii) non-targeted liposomal BTZ (1 mg/kg), (viii) non-targeted liposomal combination of BTZ and Y27632 in the same liposome (2.5 mg/kg and 1 mg/kg, respectively), (ix) empty PSGL-1-targeted liposomes, (x) PSGL-1-targeted liposomal Y27632 (2.5 mg/kg), (xi) PSGL-1-targeted liposomal BTZ (1 mg/kg), (xii) PSGL-1-targeted liposomal combination of BTZ and Y27632 in the same liposome (2.5 mg/kg and 1 mg/kg, respectively). Tumor progression was assessed weekly by BLI, weight was recorded twice a week, and survival and general health of mice were recorded daily. The in vivo data were expressed as means±standard deviation.

[2] = Drug entrapment (encapsulation) efficiency by ultracentrifugation and HPLC; format: physicochemical; settings: drug loaded in liposomes; BTZ in lipid bilayer, Y27632 in hydrophilic core
Protocol: To evaluate loading efficiency, the liposomes were centrifuged at 38,000 rpm at 4° C. for 1 hour using a Beckman Optima™ XPN ultracentrifuge equipped with an SW 50.1 […] rotor (Beckman Coulter Inc., Fullerton, Calif., USA). The amount of BTZ and Y27632 in the supernatant was evaluated by HPLC as described in Example 9. The entrapment efficiency (EE) was calculated according to the following equation: EE=DT−DU/DT×100 where DT represents the total amount of drug added to the formulation during the preparation, and DU represents the amount of unincorporated drug found in the supernatant.

MM1.S cells = test: Immunoblotting of adhesion signaling proteins (pSRC, pFAK) in MM cells co-cultured with HUVECs; format: cell-based; settings: 25 μM, 6 hours (FIG. 4A)
Protocol: (§1) HUVECs and MM1.S cells were co-cultured overnight and treated with vehicle (control), free Y27632 (25 μM), free BTZ (5 nM), empty liposomes, liposomal Y27632 (25 μM), liposomal BTZ (5 nM) for 6 hours. MM cells were then separated from the HUVECs and both cell types were collected. The proteins were then extracted and subjected to immunoblotting for pSRC, pFAK, p21, pRB, cPARP, cCasp3, cCasp9, pAKT, pS6R, pERK, and α-Tubulin.
(§2) The immunoblotting protocol was performed as previously described below. Briefly, cells were lysed with 1× lysis buffer (Cell Signaling, #9803), the protein concentration was determined by Bradford assay (BioRad, Hercules, Calif.), and 50 μg of protein was loaded per lane. Electrophoresis was performed using NuPAGE 4%-12% Bis-Tris gels (Novex, Life Technologies, Grand Island, N.Y.) and transferred to a nitrocellulose membrane using iBlot (Invitrogen). Membranes were blocked with 5% non-fat milk in Tris-Buffered Saline/Tween20 (TBST) buffer and incubated with primary antibodies overnight at 4° C. The membranes were then washed with TBST for 30 minutes, incubated for 1 hour at room temperature with horseradish peroxidase (HRP)-conjugated secondary antibody, washed, and developed using Novex ECL Plus chemiluminescent Kit. Images were taken using a ChemiDoc XRS imaging system (Bio-Rad).

HUVECs [3] = test: Immunoblotting of adhesion signaling proteins (pSRC, pFAK) in HUVECs co-cultured with MM cells; format: cell-based, human; settings: 25 μM, 6 hours (FIG. 4B)
Protocol: as §1, §2

MM.1S cells [4] = test: Viability of MM cells in co-culture with HUVECs (flow cytometry); format: cell-based; settings: Homo sapiens; 24 hours, 0-50 nM, co-culture with HUVECs (FIG. 5B); read-out: IC50, killing of MM cells
Protocol: (§3) DiD-labeled HUVECs and DiO-labeled MM.1S cells were co-cultured overnight and treated with free BTZ (0-50 nM) or liposomal BTZ (0-50 nM-equivalent) for 24 hours, and the survival of the MMs and HUVECs was analyzed via flow cytometry. MM cells were gated as DiO+ cells and HUVECs were gated as DiD+ cells, and each cell population was counted and normalized against counting beads (Invitrogen), and survival was calculated as a percentage of vehicle-treated controls. The in vitro data were expressed as means±standard deviation.

[5] = cited from earlier work
HUVECs [6] = test: Viability of HUVECs in co-culture with MM cells (flow cytometry); format: cell-based, human; settings: 24 hours, 0-50 nM, co-culture with MM.1S (FIG. 5C)
Protocol: as §3

[7] = in vivo; cited from earlier work
relapsed MM patients = settings: combination treatment of AMD3100 and BTZ; cited from earlier work

For `C[C@@H](N)[C@H]1CC[C@H](C(=O)Nc2ccncc2)CC1` [Y27632], the “SDF-induced trans-endothelial migration of MM cells” value (MM.1S cells [1]) was “reversed”, the “tumor progression / tumor growth (BLI)” value (MM.1S-GFP-Luc cells) was “did not affect the tumor growth” and the “survival of the mice” value (MM.1S-GFP-Luc cells) was “did not extend the survival”. For the same compound, the “maximal encapsulation efficiency (EE)” value [2] was 55%, the “adhesion signaling proteins (pSRC and pFAK) in MM cells” value (MM1.S cells) was “decreased adhesion signaling” and the “adhesion signaling proteins (pSRC and pFAK) in HUVECs” value (HUVECs [3]) was “decreased adhesion signaling”.
With `CC(C)C[C@H](NC(=O)[C@H](Cc1ccccc1)NC(=O)c1cnccn1)B(O)O` [BTZ, bortezomib] the IC50 (MM.1S cells [4]) was ~10 nM, the “tumor progression / tumor growth (BLI)” value (MM.1S-GFP-Luc cells) was “delayed significantly the tumor growth” and the “survival of the mice” value (MM.1S-GFP-Luc cells) was “significantly prolonged the survival”. The “maximal encapsulation efficiency (EE)” value [2] was 77%, the maximum tolerated dose ([5]; intravenous bolus on days 1, 4, 8, and 11 of a 3-week cycle (Vorhees 2003)) was “about 1.56 mg/m^2” and the maximum tolerated dose ([5]; intravenously once or twice weekly, patients with solid tumors (Orlowski 2003)) was 1.3 mg/m^2. The “survival of HUVECs” value (HUVECs [6]) was “No effect” and the “pharmacokinetic (PK) half-life” value [7] was 40 h.
For `c1cc(CN2CCCNCCNCCCNCC2)ccc1CN1CCCNCCNCCCNCC1` [AMD3100], the overall response rate (relapsed MM patients) is given as 510% and the “pharmacokinetic (PK) half-life” value [7] is given as 3 to 5 h.
